From article PMC6284057, “Combined Antibacterial Effects of Goat Cathelicidins With Different Mechanisms of Action” (Frontiers in Microbiology, 2018)
Where two headings read alike, the source gives them in different places. No end group written: not given here.

Assays:
S. aureus 209P = type: cell-based, Staphylococcus aureus; settings: 24 h
Procedure: (§1) Antimicrobial assay was performed as described previously ([Panteleev et al., 2017b]). Briefly, mid-log phase bacterial test cultures were diluted with the 2× Mueller-Hinton broth (MH, Sigma) supplemented with 1.8% NaCl or without it so that to reach a final cell concentration of 10^6 CFU/ml. 50 μl aliquots of the obtained bacterial suspension were added to 50 μl of the peptide solutions serially diluted with 0.1% water solution of bovine serum albumin (BSA) in 96-well flat-bottom polystyrene microplates (Eppendorf #0030730011). After incubation at 37°C and 900 rpm for 24 h the minimum inhibitory concentrations (MIC) were determined as the lowest peptide concentrations that prevented growth of a test microorganism observed as visible turbidity. The results were expressed as the median values determined on the basis of at least three independent experiments performed in triplicate.
(§2) The peptides were twofold serially diluted with 0.1% BSA in 96-well microplates (Eppendorf #0030730011). Then, the peptide solutions were mixed in the new test plate crosswise in such a way that the resulting checkerboard contained each combination of the cathelicidins in eight doubly increasing concentrations, with wells containing the highest concentration of each peptide at opposite corners ([Berditsch et al., 2015]). Then, the antimicrobial assay was performed as described in the previous section. […] The results were expressed as the median values determined on the basis of three independent experiments performed in duplicate. Estimation of synergistic effects of different cathelicidins was performed by calculating the fractional inhibitory concentration index (FICI) according to the equation: FICI = [À]/MICÀ + [B]/MICB, where MICÀ and MICB are the MICs of the individual substances, while [A] and [B] are the MICs of A and B when used together. A synergistic effect was defined at a FICI ≤ 0.5.

P. aeruginosa PAO1 = type: cell-based, Pseudomonas aeruginosa; settings: PAO1, 24 h
Procedure: as §1
The peptides were twofold serially diluted with 0.1% BSA in 96-well microplates (Eppendorf #0030730011). […] The results were expressed as the median values determined on the basis of three independent experiments performed in duplicate. […]

[1] = tested on: A. baumannii (XDR CI 2675); type: cell-based, Acinetobacter baumannii; settings: for Fractional inhibitory concentration (FICA, FICB): [X]/MICX; for Fractional inhibitory concentration (FICA, FICB) / MIC of the peptide when used together ([A], [B]): 0.9% NaCl; for MIC of the peptide when used together ([A], [B]): in the mix ChMAP-28 + mini-ChBac7.5Nα, other peptide at sub-inhibitory concentration; for MIC of the individual peptide (MICA, MICB): peptide used individually, medium with physiological NaCl (0.9%), median of 3 experiments in duplicate
Procedure: as §1, §2

E. cloacae (XDR CI 4172) [2] = type: cell-based, Enterobacter cloacae; settings: for Fractional inhibitory concentration (FICA, FICB): [X]/MICX; for Fractional inhibitory concentration (FICA, FICB) / MIC of the peptide when used together ([A], [B]): 0.9% NaCl; for MIC of the peptide when used together ([A], [B]): in the mix ChMAP-28 + mini-ChBac7.5Nα, other peptide at sub-inhibitory concentration; for MIC of the individual peptide (MICA, MICB): peptide used individually, medium with physiological NaCl (0.9%), median of 3 experiments in duplicate
Procedure: as §1, §2

[3] = tested on: E. coli XDR CI 1057 (26 days with mini-ChBac7.5Nα)
Procedure: as §1, with “After incubation at 37°C and 900 rpm for 24 h the minimum inhibitory concentrations (MIC) were determined as the lowest peptide concentrations that prevented growth of a test microorganism observed as visible turbidity.” left out
(§3) Resistance induction experiments were performed using the previously described method ([Chernysh et al., 2015]) with some modifications. Briefly, on day 1, the overnight culture of wild-type bacteria was diluted with the 2× MH broth containing 1.8% NaCl so that to reach a final cell concentration of 10^6 CFU/ml. 50 μl aliquots of the obtained bacterial suspension were added to 50 μl of the peptide solutions serially diluted with 0.1% water solution of BSA in 96-well microplates (Eppendorf #0030730011). After incubation at 37°C and 900 rpm for 22 ± 2 h, MICs were determined as described above. For each subsequent daily transfer, 5 μl of the inoculum taken from the first well with a sub-inhibitory drug concentration were diluted with 1 ml of the fresh 2× MH broth supplemented with 1.8% NaCl. […] 26 repeated passages in the presence of antimicrobial agents were made for each bacterial strain during the experiment. […] Control serial passages in the absence of the agent were also performed.

[4] = tested on: E. coli XDR CI 1057 (26 days with polymyxin B); settings: Table 4, strain after 26 days with polymyxin B (selection in MH broth with 0.9% NaCl)
Procedure: as §1, with “After incubation at 37°C and 900 rpm for 24 h the minimum inhibitory concentrations (MIC) were determined as the lowest peptide concentrations that prevented growth of a test microorganism observed as visible turbidity.” left out
as §3

[5] = tested on: human red blood cells (hRBC); experiment: Hemolysis (hemoglobin release assay); type: cell-based; settings: 1.5 h incubation, hRBC of 3 independent donors
Procedure: Hemolytic activity of the peptides was tested against the fresh suspension of human red blood cells (hRBC) using the hemoglobin release assay as described previously ([Panteleev et al., 2016]). Three experiments were performed with the hRBC from blood samples obtained from independent donors. The obtained data were represented as average means with standard deviations. The cytotoxicity of the peptides against HEK293T (transformed human embryonic kidney cells) and HEF (human embryonic fibroblasts) cell lines was studied using the colorimetric 3-(4,5-dimethylthiazol-2-yl)-2,5-diphenyltetrazolium bromide (MTT) dye reduction assay according to ([Panteleev and Ovchinnikova, 2017]). Three independent experiments were performed for each peptide. Half maximal inhibitory concentration (IC50) values were estimated as described previously ([Kuzmin et al., 2018]).

E. cloacae (XDR CI 4172) [6] = experiment: microbe, parasite or virus in culture; type: cell-based, Enterobacter cloacae; settings: read-out: Minimum inhibitory concentration
Procedure: as §1

E. coli XDR CI 1057 = settings: for MIC value at transfer “1”: MH broth with 0.9% NaCl, 37°C, legend covers both strains, values match XDR CI 1057
Procedure: Resistance induction experiments were performed using the previously described method ([Chernysh et al., 2015]) with some modifications. Briefly, on day 1, the overnight culture of wild-type bacteria was diluted with the 2× MH broth containing 1.8% NaCl so that to reach a final cell concentration of 10^6 CFU/ml. 50 μl aliquots of the obtained bacterial suspension were added to 50 μl of the peptide solutions serially diluted with 0.1% water solution of BSA in 96-well microplates (Eppendorf #0030730011). After incubation at 37°C and 900 rpm for 22 ± 2 h, MICs were determined as described above. For each subsequent daily transfer, 5 μl of the inoculum taken from the first well with a sub-inhibitory drug concentration were diluted with 1 ml of the fresh 2× MH broth supplemented with 1.8% NaCl. […] Control serial passages in the absence of the agent were also performed.

[7] = Table 4, strain after 26 days with mini-ChBac7.5Nα (selection in MH broth with 0.9% NaCl)
[8] = With 0.9% NaCl, resistant strain, 26 days with mini-ChBac7.5Nα
[9] = Without salt, resistant strain, 26 days with mini-ChBac7.5Nα
[10] = 0.9% NaCl, Mueller-Hinton broth, 10^6 CFU/ml, 0.1% BSA, 37°C, 24 h, median of at least 3 experiments
[11] = Without NaCl, Mueller-Hinton broth, 10^6 CFU/ml, 0.1% BSA, 37°C, 24 h, median of at least 3 experiments

Sequence | Fractional inhibitory concentration (FICA, FICB) (S. aureus 209P) | MIC of the individual peptide (MICA, MICB) (S. aureus 209P) [µM] | Fractional inhibitory concentration (FICA, FICB) [1] | MIC of the peptide when used together ([A], [B]) [1] [µM] | MIC of the individual peptide (MICA, MICB) [1] [µM] | Fractional inhibitory concentration (FICA, FICB) (E. cloacae (XDR CI 4172) [2]) | MIC of the peptide when used together ([A], [B]) (E. cloacae (XDR CI 4172) [2]) [µM] | MIC of the individual peptide (MICA, MICB) (E. cloacae (XDR CI 4172) [2]) [µM] | Minimum inhibitory concentration [3, 7] [µM] | Minimum inhibitory concentration [3, 8] [µM] | Minimum inhibitory concentration [3, 9] [µM] | Minimum inhibitory concentration [4] [µM] | MIC (E. cloacae (XDR CI 4172) [6]; [10]) [µM] | MIC (E. cloacae (XDR CI 4172) [6]; [11]) [µM] | MIC value at transfer “1” (E. coli XDR CI 1057) [µM] | further results
RRLRPRRPRLPRPRPRPRPRPR [mini-ChBac7.5Nα] | 0.125 | 16 | 0.008 | 0.5 | >32 | 0.125 | 0.5 | 4 | >128 | >256 | 1 | 64 | 4 | 1 | 8 | MIC of the individual peptide (MICA, MICB) (P. aeruginosa PAO1): >32 µM; red blood cells lysed ([5]; at the concentration of 100 μM): 2%; MIC value after selection (E. coli XDR CI 1057; after eight passages, highest concentration tested 256 μM, MH broth, 0.9% NaCl): > 256 µM
GRFKRFRKKLKRLWHKVGPFVGPILHY [ChMAP-28] | 0.063 | 0.5 | 0.125 | 0.03 | 0.25 | 0.125 | 0.03 | 0.25 | 0.125 | 0.125 | 0.125 | 0.25 | 0.25 | 0.125 | 0.125 | Fractional inhibitory concentration (FICA, FICB) (P. aeruginosa PAO1): 0.5; half maximal hemolysis concentration (HC50) ([5]; hemoglobin release): ~100 µM; MIC (E. cloacae (XDR CI 4172) [6]; Table S2, XDR clinical isolate, NaCl content of medium not stated): 0.25 µM
